Experimental findings from patent US4244954A, “Acridine compounds and methods of combatting viruses with them” (Sterling Drug Inc., priority 1978, dated 1981) are described below.

Data set [1] concerns herpes simplex virus type 2. Kind of data set: in vitro antiviral activity, serial dilution, herpes simplex virus type 2. It is filed as cell-based. Conditions: Human alphaherpesvirus 2; concentration at which active; read-out: antiviral activity against herpes type 2. On the procedure: Antiviral activity was determined in vitro by the conventional serial dilution technique against selected virus species such as herpes simplex virus types 1 and 2. In vivo antiviral activity was determined against herpes virus in the mouse genital model and the guinea pig skin infection model.

Another data set relates to Trypanosoma brucei. The class given is in vivo, mice. The method, then:
Trypanosomacidal activity was determined against Trypanosoma brucei in mice. In a curative test medication was given (orally or parenterally) as a single dose or daily in equally subdivided doses eight hours apart for four days beginning 72 hours after intraperitoneal infection. In a prophylactic-suppressive test the total daily medication was given as a single treatment one day prior to infection, and thereafter for three consecutive days the total daily medications were administered as equally subdivided doses eight hours apart. The infection was uniformly fatal in five to six days in the absence of therapy. Chemotherapeutic effectiveness was based on extension of survival time. Tests were considered terminated 28 days after infection.

The test system of the next data set is S. pyogenes. Description: in vitro antimicrobial activity, serial dilution, S. pyogenes. Conditions: Streptococcus pyogenes, read-out: minimum inhibitory concentration (MIC), bacteriostatic activity against S. pyogenes. The class given is cell-based. The method, then:
(§1) The antimicrobial activity of the compounds was determined in vitro by the conventional serial dilution technique against several species of bacteria and fungi, e.g. S. aureus, S. pyogenes, C. albicans, T. mentagrophytes.

The subject of another data set is C. albicans. Description: in vitro antimicrobial activity, serial dilution, C. albicans. Conditions: Candida albicans, read-out: MIC, fungistatic activity against C. albicans. It is filed as cell-based. On the procedure:
as §1

The next data set concerns T. mentagrophytes. Description: in vitro antimicrobial activity, serial dilution, T. mentagrophytes. It is filed as cell-based. Conditions: Trichophyton mentagrophytes, read-out: MIC, fungistatic activity against T. mentagrophytes. The method, then: as §1

On to `CN(C)CCOc1ccc2c(c1)c(Cc1ccccc1)c1ccc(Cl)cc1[n+]2C.Cl.[Cl-]` [Example 86, 2-(2-Dimethylaminoethoxy)-6-chloro-10-methyl-9-benzylacridinium chloride hydrochloride], for which, in data set [1], the minimal effective concentration stood at 12 µg/mL. In the data set with Trypanosoma brucei (mice, oral, 50 mg/kg/day×4), the “curative effect against T. brucei infection” value is “ineffective”. In addition, the “toxicity to the animals in the oral curative test” value in the data set with Trypanosoma brucei (mouse, in vivo, po, 200 mg/kg/day) is “toxic to the animals”. The MIC was found to be 7.8 µg/mL in the data set with S. pyogenes, 15.6 µg/mL in the data set with C. albicans and 31.3 µg/mL with T. mentagrophytes.
